Data as given in patent US20230302073A1, “BOTANICAL EXTRACTION” (Performance Labs Pte. Ltd., priority 2022, published 2023).
Values after ≈ are worked out from the molar mass of the structure shown.

Tests used:
[1] = in choline chloride and glycerol; cited from earlier work
[2] = DPPH radical scavenging (antioxidant) assay; format: biochemical; details: for IC50: DPPH, reference standards and yerba mate extracts by solvent (Table 10)
Procedure: The free radical scavenging activity of all the extracts was evaluated by 1,1-diphenyl-2-picryl-hydrazyl (DPPH) according to a previously reported method (Shen et al., 2010).
Thirty mg of dried extract of each sample was diluted in 10 ml of methanol, obtaining a concentration of 3 mg/mL as stock solution. From this stock solution were obtained the concentrations of 1.5, 0.75; 0.375; 0.1875; 0.09375; 0.046875; 0.0234275; and 0.01171825 mg/mL. Ascorbic acid, rutin, chlorogenic acid as pure reference standards were used as a positive control and dissolved in methanol to make the stock solution with the same concentration of extract solution.
DPPH (7.89 mg) was weighed on a chemical balance with a minimum weighing limit of 10 μg or smaller. Thereafter, it was dissolved in HPLC grade methanol to obtain a constant volume by filling 100 ml of a measuring flask (0.2 mM DPPH). Then further dilute this solution to 0.1 mM. The absorbance of a DPPH solution is empirically known to decrease with time until approximately 1 hr after preparation. Therefore, it was kept in dark for 2 hr until the absorbance stabilized.
The DPPH solution was stored in the dark at room temperature during the assay, and used up on the day of the preparation. 0.3 mL of each sample concentration and positive control was added to 2.7 mL of 0.1 mM DPPH solution. Reaction occurred inside tubes covered with aluminum paper, in a dark environment at 25° C. The mixtures were shaken vigorously and allowed to stand at room temperature for 30 minutes. Then the absorbance was measured at 517 nm using a microplate reader (Varioskan LUX, ThermoFisher). Control sample was prepared containing the same volume without any extract and reference ascorbic acid; methanol was used as blank and % scavenging of the DPPH free radical was measured using the following equation:
DPPH scavenging effect (% inhibition)={(Ac−As)/Ac)*100}
Where, Ac=absorbance of DPPH alone, As=absorbance of DPPH along with different concentrations of extracts.
The measurements were done at eight points of concentration. The measurement for and analytical sample solution at each concentration was repeated three times.
The IC50 of each analytical sample was calculated according to the following procedure: Inhibition ratio were plotted against the sample concentrations at all six points and the respective regression line (y=ax+b) was drawn. The regression line was not required to pass through the origin. In this step, we verified that all of the measurement points were on the regression line. […] When Y in the regression equation was substituted with 50, X (sample concentration) was calculated.
This value was obtained from the results of calculations using linear regression analysis. […]

[3] = adults; cited from earlier work

Row | IC50 [2] [µg/mL] | SMILES | further results
1 | – | Cn1cnc2c1c(=O)[nH]c(=O)n2C [theobromine, 3,7-dimethylxanthine] | solubility relative to water [1]: ~32 times
2 | 446.70 (≈ 2540 µM) | O=C1O[C@H]([C@@H](O)CO)C(O)=C1O [ascorbic acid] | –
3 | 185.68 (≈ 360 µM) | O=C(/C=C/c1ccc(O)c(O)c1)O[C@@H]1CC(O)(C(=O)O)C[C@@H](OC(=O)/C=C/c2ccc(O)c(O)c2)C1O (stereo partly drawn) [3,5-diCQA, 3,5-dicaffeoylquinic acid] | –
4 | 199.68 (≈ 387 µM) | O=C(/C=C/c1ccc(O)c(O)c1)O[C@H]1[C@H](O)C[C@](O)(C(=O)O)C[C@H]1OC(=O)/C=C/c1ccc(O)c(O)c1 [4,5-diCQA, 4,5-dicaffeoylquinic acid] | –
5 | – | C[N+](C)(C)CCO [choline] | daily upper limit, highest level of intake unlikely to cause harm [3]: 3,500 mg/day
6 | – | Cn1c(=O)c2c(ncn2C)n(C)c1=O [caffeine, 1,3,7-trimethylxanthine] | contribution to the extract's antioxidant property ([2]; correlation of DPPH IC50 with total CQAs, with or without caffeine): no contribution
